Source: ChEMBL document CHEMBL1201862, “PubChem BioAssay data set” (2004)
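Exposure lasted 48 hours, with cells grown in 96-well plates and compounds tested at five concentrations. GI50: concentration for 50% inhibition of growth.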 Activity calls are given as the source filed them. Rule as the data show it: active = GI50 up to about 1.1 µM and inactive = higher.

What was measured:
Assay in all cases: DTP human tumour cell line panel, 48 h
[1] = system: IGROV-1
[2] = system: NCI-H460
[3] = system: SF-539
[4] = system: SNB-19
[5] = system: HT-29
[6] = system: NCI-H226
[7] = system: A498
[8] = system: M14
[9] = system: SF-295
[10] = system: OVCAR-5
[11] = system: NCI-H522
[12] = system: LOX IMVI
[13] = system: KM12
[14] = system: HCT-116
[15] = system: CAKI-1
[16] = system: OVCAR-4
[17] = system: UACC-62
[18] = system: SK-MEL-5

Measured: GI50

O=C(CCC(=O)C(C(=O)c1ccccc1)c1ccccc1)Nc1cccc(C(F)(F)F)c1 (configuration not stated)
inactive: [1] > 100 µM | [2] > 100 µM | [3] > 100 µM | [4] > 100 µM | [5] > 100 µM | [6] > 100 µM | [7] > 100 µM | [8] > 100 µM | [9] > 100 µM | [10] > 100 µM | [11] > 100 µM | [12] > 100 µM | [13] > 100 µM | [14] > 100 µM | [15] > 100 µM | [16] > 100 µM | [17] > 100 µM

O=C(Nc1c(O)[nH]c(=S)[nH]c1=O)c1ccccc1
inactive: [1] > 100 µM | [2] > 100 µM | [3] > 100 µM | [4] > 100 µM | [5] > 100 µM | [6] > 100 µM | [7] > 100 µM | [8] > 100 µM | [9] > 100 µM | [10] > 100 µM | [11] > 100 µM | [12] > 100 µM | [13] > 100 µM | [18] > 100 µM | [14] > 100 µM | [15] > 100 µM | [16] > 100 µM | [17] > 100 µM

Cc1nc2c(N)ncnc2o1
inactive: [1] > 100 µM | [2] > 100 µM | [3] > 100 µM | [4] > 100 µM | [5] > 100 µM | [6] > 100 µM | [7] > 100 µM | [8] > 100 µM | [9] > 100 µM | [10] > 100 µM | [11] > 100 µM | [12] > 100 µM | [13] > 100 µM | [18] > 100 µM | [14] > 100 µM | [15] > 100 µM | [16] > 100 µM | [17] > 100 µM

O=[N+]([O-])C(=C(c1ccccc1)c1ccccc1)[N+](=O)[O-]
inactive: [1] 5.96 µM | [2] 5.57 µM | [3] 13.6 µM | [4] 15.7 µM | [5] > 10 µM | [6] 31.1 µM | [7] 14.8 µM | [8] 11.9 µM | [9] 13.5 µM | [10] 19.9 µM | [11] 15.4 µM | [12] 2.96 µM | [13] 15.5 µM | [14] 11.9 µM | [15] 21.1 µM | [16] 14.5 µM | [17] 3.79 µM

C=CCN1CCC23c4c5ccc(O)c4OC2C(=NN=C2CCC4(O)C6Cc7ccc(O)c8c7C4(CCN6CC=C)C2O8)CCC3(O)C1C5 (configuration not stated)
inactive: [1] > 100 µM | [2] 20.5 µM | [3] 18.6 µM | [4] 44.3 µM | [5] 18.3 µM | [6] > 100 µM | [7] 20.2 µM | [8] 17.8 µM | [9] 20.7 µM | [10] 66.5 µM | [11] 31 µM | [12] 20 µM | [13] 21.2 µM | [18] 20.4 µM | [15] 44.5 µM | [16] 22 µM | [17] 21 µM

CC(=O)/C=C/c1ccc(C2CC(C)=Nc3c(ccc4c3C(=O)c3ccccc3C4=O)N2)cc1 (configuration not stated)
inactive: [1] 9.12 µM | [2] 30 µM | [3] 63.8 µM | [4] > 100 µM | [5] > 100 µM | [6] 32.2 µM | [7] 33.3 µM | [8] 77.3 µM | [9] > 100 µM | [10] > 86.5 µM | [11] > 20 µM | [12] 8.83 µM | [13] 3.37 µM | [18] 86.5 µM | [14] 33 µM | [15] 6.98 µM | [16] > 85.9 µM | [17] 59.7 µM

CCOC(=O)C12CCCC1(O)N(NC(=O)OC)C(C)=C2C(=O)OC (configuration not stated)
inactive: [1] > 100 µM | [2] > 100 µM | [3] > 100 µM | [4] > 100 µM | [5] > 100 µM | [6] > 100 µM | [7] > 100 µM | [8] > 100 µM | [9] > 10 µM | [10] > 100 µM | [11] > 100 µM | [12] > 100 µM | [13] > 10 µM | [14] > 100 µM | [15] > 100 µM | [16] > 100 µM | [17] > 100 µM

CC(C)C1COC(c2ccc3ccccc3c2-c2c(O[Si](C)(C)C(C)(C)C)ccc3ccccc23)=N1 (configuration not stated)
inactive: [1] 20.2 µM | [2] 19.6 µM | [3] 16.9 µM | [4] 14.9 µM | [5] 15.5 µM | [6] 11.8 µM | [7] 19.2 µM | [8] 15.8 µM | [9] 17.2 µM | [10] 18.4 µM | [11] 15.2 µM | [12] 19.7 µM | [13] 17.9 µM | [18] 16.7 µM | [15] 21.9 µM | [16] 14.6 µM | [17] 15.8 µM

O=C(CC12C3C4C1C1C2C3C41CC(=O)NO)NO (configuration not stated)
inactive: [2] 23.4 µM | [3] 46.3 µM | [4] > 100 µM | [5] 29.4 µM | [6] 34 µM | [7] 28.8 µM | [8] 28.8 µM | [9] 27.1 µM | [10] > 100 µM | [11] 27.7 µM | [12] 28.9 µM | [13] 38.8 µM | [18] 27.4 µM | [14] 42.4 µM | [15] 71.8 µM | [17] 37.6 µM

CCC(C)CCOC(=O)c1ccc(/N=C\c2ccc(/C=N/c3ccc(C(=O)OCCC(C)CC)cc3)cc2)cc1 (configuration not stated)
inactive: [1] > 100 µM | [2] > 100 µM | [3] > 100 µM | [4] > 100 µM | [5] > 100 µM | [6] > 100 µM | [7] > 100 µM | [8] > 100 µM | [9] > 100 µM | [10] > 100 µM | [11] > 100 µM | [12] > 100 µM | [18] > 100 µM | [14] > 100 µM | [15] > 100 µM | [16] > 100 µM | [17] > 100 µM

CSc1ccc2c(cc1=O)C(NC(=O)c1ccc(OC(C)=O)cc1)CCc1cc(O)c(O)c(O)c1-2 (configuration not stated)
inactive: [2] 23.2 µM | [3] 19.1 µM | [4] 35.2 µM | [5] 19.6 µM | [6] 20.9 µM | [7] 57 µM | [8] 16.7 µM | [9] 19.1 µM | [10] 25.1 µM | [11] 12.8 µM | [13] 32 µM | [18] 16 µM | [14] 17.3 µM | [16] 9.02 µM | [17] 18.5 µM
